Data: PMC11202169, “A Novel Fluorescence-Based Microplate Assay for High-Throughput Screening of hSULT1As Inhibitors” (Biosensors, 2024)

How the values were obtained:
Type in all cases: biochemical
[1] = molecular target: T1, hSULT1A1 (Homo sapiens, UniProt P50225); assay: Fluorescence-based microplate inhibition assay, hSULT1A1-catalyzed HN-241 4-O-sulfation; conditions: test compound 1 μM, HN-241 1 μM, 15 min; for activity at 1 µM: read-out: Residue activity (%) hSULT1A1;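 for all read-outs here: reaction started with 200 µM PAPS at 37 °C, fluorescence read continuously (Ex 350 nm, Em 450 nm), activity expressed relative to DMSO-only control without inhibitor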
T1 construct: 6-histidine tag (N); TEV site (N); made in house; host or cells: Escherichia coli BL21 (DE3), pET29a(+)

[2] = molecular target: T2, hSULT1A2 (Homo sapiens, UniProt P50226); assay: Fluorescence-based microplate inhibition assay, hSULT1A2-catalyzed HN-241 4-O-sulfation; conditions: test compound 10 μM, HN-241 5 μM, 15 min; for remaining activity at 10 µM: 0.25 h, read-out: Residue activity (%) hSULT1A2
T2 construct: 6-histidine tag (N); TEV site (N); made in house; host or cells: Escherichia coli BL21 (DE3), pET29a(+)

[3] = molecular target: T3, hSULT1A3 (Homo sapiens, UniProt P0DMM9); assay: Fluorescence-based microplate inhibition assay, hSULT1A3-catalyzed HN-241 4-O-sulfation; conditions: test compound 10 μM, HN-241 10 μM, 15 min; for activity at 10 µM: read-out: Residue activity (%) hSULT1A3
T3 construct: 6-histidine tag (N); TEV site (N); made in house; host or cells: Escherichia coli BL21 (DE3), pET29a(+)
T3 sequence (P0DMM9 whole entry): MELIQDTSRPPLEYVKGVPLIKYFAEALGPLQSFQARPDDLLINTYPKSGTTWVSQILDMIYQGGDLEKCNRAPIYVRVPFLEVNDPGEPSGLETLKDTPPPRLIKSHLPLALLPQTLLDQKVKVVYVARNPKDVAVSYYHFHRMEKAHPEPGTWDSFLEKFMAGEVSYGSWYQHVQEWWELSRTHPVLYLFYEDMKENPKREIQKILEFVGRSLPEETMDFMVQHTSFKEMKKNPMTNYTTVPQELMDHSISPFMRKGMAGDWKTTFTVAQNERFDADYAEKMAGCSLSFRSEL

T2 sequence (P50226 whole entry): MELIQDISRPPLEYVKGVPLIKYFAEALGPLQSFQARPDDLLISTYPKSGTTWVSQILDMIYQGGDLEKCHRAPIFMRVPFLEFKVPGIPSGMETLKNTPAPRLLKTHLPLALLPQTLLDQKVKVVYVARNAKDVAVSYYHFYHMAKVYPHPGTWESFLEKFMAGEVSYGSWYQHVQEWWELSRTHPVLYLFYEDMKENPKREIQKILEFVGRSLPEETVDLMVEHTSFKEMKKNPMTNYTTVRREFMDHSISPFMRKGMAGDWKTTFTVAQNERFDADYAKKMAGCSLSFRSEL
T1 sequence (P50225 whole entry): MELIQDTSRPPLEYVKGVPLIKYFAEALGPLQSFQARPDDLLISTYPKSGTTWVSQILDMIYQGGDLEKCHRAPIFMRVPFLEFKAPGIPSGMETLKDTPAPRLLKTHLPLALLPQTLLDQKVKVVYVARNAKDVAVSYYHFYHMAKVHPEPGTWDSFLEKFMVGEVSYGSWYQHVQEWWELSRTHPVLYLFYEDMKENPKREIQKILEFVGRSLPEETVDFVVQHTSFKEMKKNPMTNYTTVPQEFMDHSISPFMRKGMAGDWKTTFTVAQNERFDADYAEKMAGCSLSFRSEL

Row | activity at 1 µM [1] | remaining activity at 10 µM [2] | activity at 10 µM [3] | Residue activity (%) hSULT1A1 [1] | Residue activity (%) hSULT1A2 [2] | Residue activity (%) hSULT1A3 [3] | Compound
1 | 0.08% | 4.43% | 39.8% | – | – | – | O=c1c(O)c(-c2cc(O)c(O)c(O)c2)oc2cc(O)cc(O)c12 [Myricetin]
2 | – | – | – | 2.77% | 22.81% | 54.16% | COc1ccc(-c2coc3cc(O[C@@H]4O[C@H](CO)[C@@H](O)[C@H](O)[C@H]4O)ccc3c2=O)cc1O [Calycosin-7-O-β-D-glucoside]
3 | – | – | – | 129.29% | 102.92% | 123.25% | COc1cc2c(c(OC)c1OC)-c1c(cc(OC)c(OC)c1OC)C[C@](C)(O)[C@@H](C)C2 [Schisandrin]
4 | 0% | 57% | 39.1% | – | – | – | COc1ccc(-c2cc(=O)c3c(O)cc(O)cc3o2)cc1O [Diosmetin]
5 | – | – | – | 0.00% | 0.20% | 61.63% | COc1cc2c(c(O)c1OC)C(=O)c1c(cc(C)c(O)c1OC)C2=O [1,7-Dihydroxy-2,3,8-trimethoxy-6-methylanthracene-9,10-dione]
6 | – | – | – | 97.09% | 100.46% | 99.76% | Hydroxysafflor yellow A
7 | – | – | – | 91.81% | 103.62% | 104.97% | COc1ccc(-c2oc3c(CC=C(C)C)c(O[C@@H]4O[C@H](CO)[C@@H](O)[C@H](O)[C@H]4O)cc(O)c3c(=O)c2O)cc1 [Icariside I]
8 | 59.4% | 0.83% | 96.9% | – | – | – | O=C(O)c1cc(O)c2c(c1)C(=O)c1cccc(O)c1C2=O [Rhein]

Row | Compound | activity at 1 µM [1] | remaining activity at 10 µM [2] | activity at 10 µM [3] | Residue activity (%) hSULT1A1 [1] | Residue activity (%) hSULT1A2 [2] | Residue activity (%) hSULT1A3 [3]
9 | CC(C)=CCC[C@](C)(O)[C@H]1CC[C@]2(C)[C@@H]1[C@H](O)C[C@@H]1[C@@]3(C)CC[C@H](O)C(C)(C)[C@@H]3[C@@H](O[C@@H]3O[C@H](CO)[C@@H](O)[C@H](O)[C@H]3O)C[C@]12C [Ginsenoside Rh1] | 114% | 96.5% | 100% | – | – | –
10 | O=C1CCC[C@@H]2[C@H]3CCC[N@+]4([O-])CCC[C@@H](CN12)[C@@H]34 [Ammothamnine] | – | – | – | 99.18% | 96.56% | 100.34%
11 | CC(C)=CCC[C@@](C)(O)[C@H]1CC[C@]2(C)[C@@H]1[C@H](O)C[C@@H]1[C@@]3(C)CC[C@H](O)C(C)(C)[C@@H]3[C@@H](O[C@@H]3O[C@H](CO)[C@@H](O)[C@H](O)[C@H]3O[C@@H]3O[C@@H](C)[C@H](O)[C@@H](O)[C@H]3O)C[C@]12C [20(R)-Ginsenoside Rg2] | – | – | – | 104.07% | 104.32% | 122.28%
12 | COc1cc(OC)c(CCC(=O)c2ccc(O)cc2)c(OC)c1 [Loureirin B] | – | – | – | 5.84% | 6.16% | 71.91%
13 | COc1ccc(-c2oc3c(CC=C(C)C)c(O[C@@H]4O[C@H](CO)[C@@H](O)[C@H](O)[C@H]4O)cc(O)c3c(=O)c2O[C@@H]2O[C@@H](C)[C@H](O)[C@@H](O)[C@H]2O[C@@H]2O[C@@H](C)[C@H](O)[C@@H](O)[C@H]2O)cc1 [Epimedin C] | – | – | – | 108.62% | 95.77% | 107.48%
